ChEMBL document CHEMBL3853264 (Medchemcomm, 2016)

Legend:
[1] = Drug level in rat hepatocytes treated with 4-(3-chloro-4-(hydroxymethyl)phenoxy)-3-cyano-N-(5-fluoropyridin-2-yl)benzenesulfonamide; format: ADME, cell-based, Hepatocyte
[2] = Intrinsic clearance in human liver microsomes; format: ADME; conditions: read-out: CLH
[3] = Octanol-water partition co-efficient, log D of the compound by shake flask method; format: physicochemical
[4] = target: T1, Solute carrier family 22 member 12 (Homo sapiens, UniProt Q96S37); assay: Inhibition of human C-terminal eGFP-tagged URAT1 long isoform expressed in CHO cells assessed as decrease in [14C]-uric acid uptake preincubated for 15 mins followed by [14C]-uric acid addition and incubated in dark for 3 hrs by scintillation counting method; format: cell-based
T1 sequence (Q96S37 whole entry): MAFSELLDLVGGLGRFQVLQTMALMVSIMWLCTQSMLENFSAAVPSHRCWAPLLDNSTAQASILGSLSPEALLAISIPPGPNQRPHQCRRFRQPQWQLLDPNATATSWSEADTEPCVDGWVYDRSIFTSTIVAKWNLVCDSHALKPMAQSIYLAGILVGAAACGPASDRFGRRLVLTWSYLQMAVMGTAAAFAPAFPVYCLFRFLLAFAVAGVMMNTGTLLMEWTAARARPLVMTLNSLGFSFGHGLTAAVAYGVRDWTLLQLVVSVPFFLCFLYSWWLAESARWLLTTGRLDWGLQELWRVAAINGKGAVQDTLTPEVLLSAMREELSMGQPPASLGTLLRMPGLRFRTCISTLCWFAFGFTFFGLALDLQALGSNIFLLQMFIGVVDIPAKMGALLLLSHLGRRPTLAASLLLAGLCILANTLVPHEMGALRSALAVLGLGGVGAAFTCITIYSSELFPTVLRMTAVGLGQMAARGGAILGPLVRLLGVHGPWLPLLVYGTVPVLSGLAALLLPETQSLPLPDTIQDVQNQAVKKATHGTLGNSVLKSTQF

[5] = target: T1, Solute carrier family 22 member 12; assay: Inhibition of URAT1 (unknown origin)

| Structure (SMILES) | microsomal CLint [2] | logD [3] | further results |
| --- | --- | --- | --- |
| N#Cc1cc(S(=O)(=O)Nc2ccc(F)cn2)ccc1Oc1ccc(CO[C@@H]2O[C@H](C(=O)O)[C@@H](O)[C@H](O)[C@H]2O)c(Cl)c1 | – | – | Drug metabolism [1]: Metabolite_Detected |
| N#Cc1ccc(Oc2ccc(S(=O)(=O)Nc3ccc(F)cn3)cc2C#N)c(Cl)c1 | < 8 µL/min/mg | 1.9 | – |
| N#Cc1ccc(Oc2ccc(S(=O)(=O)Nc3ncns3)cc2C#N)cc1Cl | – | – | IC50 [4]: 1120 nM |
| N#Cc1ccc(Oc2ccc(S(=O)(=O)Nc3cccnc3)cc2C#N)cc1Cl | – | – | IC50 [4]: 395 nM |
| CC(C)(Oc1ccc(C(=O)c2ccc(Cl)cc2)cc1)C(=O)O [FENOFIBRIC ACID] | – | – | IC50 [5]: 11000 nM |
| CC(C)OC(=O)C(C)(C)Oc1ccc(C(=O)c2ccc(Cl)cc2)cc1 [FENOFIBRATE] | – | – | IC50 [5]: > 75000 nM |

Now from value to molecule, other results behind:

| microsomal CLint [2] | logD [3] | Structure (SMILES) | further results |
| --- | --- | --- | --- |
| < 8 µL/min/mg | – | N#Cc1ccc(Oc2ccc(S(=O)(=O)Nc3ccc(F)cn3)cc2C#N)cc1 | – |
| 65 µL/min/mg | – | N#Cc1cccc(Oc2ccc(S(=O)(=O)Nc3ccc(F)cn3)cc2C#N)c1 | – |
| 83 µL/min/mg | 1.5 | N#Cc1cc(Oc2ccc(S(=O)(=O)Nc3ccc(F)cn3)cc2C#N)ccc1F | – |
| < 8 µL/min/mg | 1.4 | N#Cc1ccc(Oc2ccc(S(=O)(=O)Nc3ccc(F)cn3)cc2C#N)cc1F | – |
